Tests used:
[1] = system: Rhesus monkey; experiment: Antialzheimer activity against in po dosed rhesus monkey assessed as decrease in amyloid beta 40 in CSF measured after 3 hrs; assay type: functional; conditions: Macaca mulatta
[2] = system: Rattus norvegicus; experiment: Antialzheimer activity against in po dosed rat assessed as decrease in amyloid beta 40 in CSF measured after 3 hrs; assay type: functional
[3] = target: T1, Beta-secretase 1 (Homo sapiens, UniProt P56817); experiment: Inhibition of BACE1 (unknown origin) expressed in HEK293 cells expressing human APP with Swedish and London familial AD mutation; assay type: cell-based
T1 sequence (P56817 whole entry): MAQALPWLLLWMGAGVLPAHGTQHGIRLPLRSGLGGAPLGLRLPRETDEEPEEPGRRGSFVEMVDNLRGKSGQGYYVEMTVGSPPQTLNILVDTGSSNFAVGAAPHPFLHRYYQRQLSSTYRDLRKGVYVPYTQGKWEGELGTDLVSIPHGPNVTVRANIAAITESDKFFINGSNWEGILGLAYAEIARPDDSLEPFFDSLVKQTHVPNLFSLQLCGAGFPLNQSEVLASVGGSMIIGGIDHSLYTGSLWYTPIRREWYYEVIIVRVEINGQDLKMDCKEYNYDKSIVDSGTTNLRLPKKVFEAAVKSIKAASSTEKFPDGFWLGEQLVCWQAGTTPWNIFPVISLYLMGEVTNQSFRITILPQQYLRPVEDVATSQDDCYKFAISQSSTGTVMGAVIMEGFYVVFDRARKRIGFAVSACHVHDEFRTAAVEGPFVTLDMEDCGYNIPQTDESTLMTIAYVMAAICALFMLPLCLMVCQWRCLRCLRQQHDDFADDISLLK

[4] = target: T2, Cathepsin E (Homo sapiens, UniProt P14091); experiment: Inhibition of human cathepsin E
T2 sequence (P14091 whole entry): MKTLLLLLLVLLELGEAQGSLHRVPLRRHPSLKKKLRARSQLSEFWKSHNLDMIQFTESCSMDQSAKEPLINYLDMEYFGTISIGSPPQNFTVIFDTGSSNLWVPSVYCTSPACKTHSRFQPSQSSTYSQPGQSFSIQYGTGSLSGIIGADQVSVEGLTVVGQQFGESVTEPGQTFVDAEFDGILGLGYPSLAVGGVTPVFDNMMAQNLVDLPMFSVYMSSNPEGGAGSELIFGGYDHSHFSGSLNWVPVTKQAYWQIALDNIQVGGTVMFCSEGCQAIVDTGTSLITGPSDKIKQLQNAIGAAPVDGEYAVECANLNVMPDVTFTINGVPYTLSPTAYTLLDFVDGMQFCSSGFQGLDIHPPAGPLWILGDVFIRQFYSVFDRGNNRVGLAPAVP

[5] = system: Rattus norvegicus; experiment: Antialzheimer activity against in rat assessed as decrease in amyloid beta 40 in CSF at 10 mg/kg, po and measured after 3 hrs relative to control; assay type: functional; parameters: scale not given: the % may be the effect or the level left
[6] = target: Sodium channel protein type 2 subunit alpha (Homo sapiens, UniProt Q99250); experiment: Inhibition of NaV1.2 (unknown origin)
[7] = system: Rattus norvegicus; experiment: Antialzheimer activity against in po dosed rat assessed as plasma concentration required to 50 % decrease in amyloid beta 40 in CSF measured after 3 hrs; assay type: functional, organism-based
[8] = target: Voltage-dependent L-type calcium channel subunit alpha-1C (Homo sapiens, UniProt Q13936); experiment: Inhibition of CAV1.2 (unknown origin)
Voltage-dependent L-type calcium channel subunit alpha-1C, sequence (Q13936 whole entry): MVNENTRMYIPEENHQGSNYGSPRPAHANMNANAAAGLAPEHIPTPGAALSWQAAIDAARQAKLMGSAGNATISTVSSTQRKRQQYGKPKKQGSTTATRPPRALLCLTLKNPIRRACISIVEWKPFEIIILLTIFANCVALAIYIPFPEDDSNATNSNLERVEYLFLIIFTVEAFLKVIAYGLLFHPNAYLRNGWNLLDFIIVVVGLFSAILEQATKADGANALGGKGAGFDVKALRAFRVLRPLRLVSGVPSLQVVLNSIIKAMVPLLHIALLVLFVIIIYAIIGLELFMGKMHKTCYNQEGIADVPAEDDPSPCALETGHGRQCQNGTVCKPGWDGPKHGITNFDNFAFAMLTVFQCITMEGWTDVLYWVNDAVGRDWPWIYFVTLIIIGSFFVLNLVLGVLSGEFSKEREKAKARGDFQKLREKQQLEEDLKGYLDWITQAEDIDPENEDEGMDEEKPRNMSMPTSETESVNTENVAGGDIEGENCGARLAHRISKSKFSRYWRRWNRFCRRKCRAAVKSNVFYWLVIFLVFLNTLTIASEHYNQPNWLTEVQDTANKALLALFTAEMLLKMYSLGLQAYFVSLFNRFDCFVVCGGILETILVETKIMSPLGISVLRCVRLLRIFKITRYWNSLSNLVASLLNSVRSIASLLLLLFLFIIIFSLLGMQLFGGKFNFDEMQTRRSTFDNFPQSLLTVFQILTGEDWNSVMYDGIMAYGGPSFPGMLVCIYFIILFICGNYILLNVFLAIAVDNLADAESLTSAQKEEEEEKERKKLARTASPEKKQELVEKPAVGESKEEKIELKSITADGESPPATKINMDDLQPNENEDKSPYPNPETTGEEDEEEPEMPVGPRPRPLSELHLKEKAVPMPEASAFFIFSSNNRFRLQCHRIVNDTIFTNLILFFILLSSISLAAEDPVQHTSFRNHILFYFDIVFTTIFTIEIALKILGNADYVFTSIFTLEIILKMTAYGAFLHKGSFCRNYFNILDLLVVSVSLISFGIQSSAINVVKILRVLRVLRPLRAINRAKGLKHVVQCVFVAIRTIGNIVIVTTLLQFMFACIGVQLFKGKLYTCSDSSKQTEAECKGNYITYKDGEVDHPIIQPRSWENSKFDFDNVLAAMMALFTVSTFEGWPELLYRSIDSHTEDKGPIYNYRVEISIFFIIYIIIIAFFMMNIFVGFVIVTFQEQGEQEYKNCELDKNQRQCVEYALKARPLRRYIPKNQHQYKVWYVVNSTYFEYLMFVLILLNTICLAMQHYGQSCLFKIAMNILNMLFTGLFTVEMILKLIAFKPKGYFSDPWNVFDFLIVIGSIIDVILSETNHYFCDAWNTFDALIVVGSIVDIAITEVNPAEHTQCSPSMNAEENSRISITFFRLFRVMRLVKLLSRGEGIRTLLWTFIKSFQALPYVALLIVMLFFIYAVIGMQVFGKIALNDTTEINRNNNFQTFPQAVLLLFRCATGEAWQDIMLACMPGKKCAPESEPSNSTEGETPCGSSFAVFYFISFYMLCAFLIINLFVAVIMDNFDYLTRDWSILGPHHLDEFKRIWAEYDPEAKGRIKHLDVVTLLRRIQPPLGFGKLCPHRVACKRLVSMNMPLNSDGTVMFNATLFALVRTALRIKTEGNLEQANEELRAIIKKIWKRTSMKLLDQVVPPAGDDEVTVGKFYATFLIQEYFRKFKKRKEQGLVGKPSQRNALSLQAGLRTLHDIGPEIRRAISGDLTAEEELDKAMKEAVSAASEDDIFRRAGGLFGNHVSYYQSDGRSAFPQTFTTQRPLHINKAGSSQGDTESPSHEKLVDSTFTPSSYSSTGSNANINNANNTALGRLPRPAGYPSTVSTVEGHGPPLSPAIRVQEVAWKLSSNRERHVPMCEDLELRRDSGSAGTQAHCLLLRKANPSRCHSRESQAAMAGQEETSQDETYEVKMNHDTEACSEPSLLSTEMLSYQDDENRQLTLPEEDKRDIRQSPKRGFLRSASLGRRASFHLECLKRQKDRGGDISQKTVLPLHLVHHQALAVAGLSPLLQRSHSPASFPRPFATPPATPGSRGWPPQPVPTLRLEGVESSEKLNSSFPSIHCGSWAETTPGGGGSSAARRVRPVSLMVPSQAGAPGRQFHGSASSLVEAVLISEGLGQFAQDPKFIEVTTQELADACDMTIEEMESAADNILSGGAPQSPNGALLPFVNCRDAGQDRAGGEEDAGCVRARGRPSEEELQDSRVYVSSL

[9] = system: Rhesus monkey; experiment: Antialzheimer activity against in po dosed rhesus monkey assessed as plasma concentration required to 50 % decrease in amyloid beta 40 in CSF measured after 3 hrs; assay type: functional, organism-based; conditions: Macaca mulatta
[10] = target: Cathepsin D (Homo sapiens, UniProt P07339); experiment: Inhibition of human cathepsin D
Cathepsin D, sequence (P07339 65-162 limits assumed): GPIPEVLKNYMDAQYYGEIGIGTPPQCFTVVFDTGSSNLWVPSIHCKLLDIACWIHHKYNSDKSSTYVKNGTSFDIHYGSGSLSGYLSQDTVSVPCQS
Cathepsin D, sequence (P07339 169-412 limits assumed): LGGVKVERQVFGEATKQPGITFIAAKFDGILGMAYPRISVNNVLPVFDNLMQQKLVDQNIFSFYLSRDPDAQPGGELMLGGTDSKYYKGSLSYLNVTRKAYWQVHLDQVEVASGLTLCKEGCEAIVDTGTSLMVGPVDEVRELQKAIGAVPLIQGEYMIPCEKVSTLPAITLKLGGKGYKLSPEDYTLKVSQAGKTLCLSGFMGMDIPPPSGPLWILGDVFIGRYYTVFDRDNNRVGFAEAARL

[11] = target: T1, Beta-secretase 1; experiment: Inhibition of BACE1 (unknown origin)
[12] = target: T3, Renin (Homo sapiens, UniProt P00797); experiment: Inhibition of human renin
T3 sequence (P00797 whole entry): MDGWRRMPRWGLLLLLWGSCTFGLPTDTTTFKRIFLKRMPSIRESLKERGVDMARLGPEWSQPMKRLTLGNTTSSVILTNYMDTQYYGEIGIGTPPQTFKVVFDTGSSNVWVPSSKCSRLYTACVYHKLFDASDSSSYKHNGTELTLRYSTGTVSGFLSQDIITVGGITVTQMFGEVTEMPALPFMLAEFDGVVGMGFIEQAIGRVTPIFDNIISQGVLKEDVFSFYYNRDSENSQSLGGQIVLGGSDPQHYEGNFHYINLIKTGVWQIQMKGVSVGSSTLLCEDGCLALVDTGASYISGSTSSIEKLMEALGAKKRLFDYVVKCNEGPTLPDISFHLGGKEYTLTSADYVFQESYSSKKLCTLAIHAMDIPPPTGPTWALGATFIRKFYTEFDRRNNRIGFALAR

[13] = Apparent permeability in pig LLC-PK1 cells; assay type: ADME, cell-based, Sus scrofa
[14] = Lipophilicity, log D of compound at pH 7 by HPLC analysis; assay type: physicochemical; conditions: buffer
[15] = system: MDR1 (human); experiment: Efflux ratio of apparent permeability across basolateral to apical membrane to apical to basolateral membrane in pig LLC-PK1 cells expressing human MDR1 at 1 uM; assay type: ADME, cell-based, Sus scrofa
[16] = system: MDR1 (rat); experiment: Efflux ratio of apparent permeability across basolateral to apical membrane to apical to basolateral membrane in pig LLC-PK1 cells expressing rat MDR1 at 1 uM; assay type: ADME, cell-based, Sus scrofa
[17] = Dissociation constant, pKa of compound by UV-metric spectrophotometric analysis; assay type: physicochemical
[18] = target: T4, Voltage-gated inwardly rectifying potassium channel KCNH2 (Homo sapiens, UniProt Q12809); experiment: Displacement of MK499 from human ERG expressed in HEK membrane by radio ligand binding competition assay; assay type: toxicity, cell membranes, Cell membrane
T4 sequence (Q12809 whole entry): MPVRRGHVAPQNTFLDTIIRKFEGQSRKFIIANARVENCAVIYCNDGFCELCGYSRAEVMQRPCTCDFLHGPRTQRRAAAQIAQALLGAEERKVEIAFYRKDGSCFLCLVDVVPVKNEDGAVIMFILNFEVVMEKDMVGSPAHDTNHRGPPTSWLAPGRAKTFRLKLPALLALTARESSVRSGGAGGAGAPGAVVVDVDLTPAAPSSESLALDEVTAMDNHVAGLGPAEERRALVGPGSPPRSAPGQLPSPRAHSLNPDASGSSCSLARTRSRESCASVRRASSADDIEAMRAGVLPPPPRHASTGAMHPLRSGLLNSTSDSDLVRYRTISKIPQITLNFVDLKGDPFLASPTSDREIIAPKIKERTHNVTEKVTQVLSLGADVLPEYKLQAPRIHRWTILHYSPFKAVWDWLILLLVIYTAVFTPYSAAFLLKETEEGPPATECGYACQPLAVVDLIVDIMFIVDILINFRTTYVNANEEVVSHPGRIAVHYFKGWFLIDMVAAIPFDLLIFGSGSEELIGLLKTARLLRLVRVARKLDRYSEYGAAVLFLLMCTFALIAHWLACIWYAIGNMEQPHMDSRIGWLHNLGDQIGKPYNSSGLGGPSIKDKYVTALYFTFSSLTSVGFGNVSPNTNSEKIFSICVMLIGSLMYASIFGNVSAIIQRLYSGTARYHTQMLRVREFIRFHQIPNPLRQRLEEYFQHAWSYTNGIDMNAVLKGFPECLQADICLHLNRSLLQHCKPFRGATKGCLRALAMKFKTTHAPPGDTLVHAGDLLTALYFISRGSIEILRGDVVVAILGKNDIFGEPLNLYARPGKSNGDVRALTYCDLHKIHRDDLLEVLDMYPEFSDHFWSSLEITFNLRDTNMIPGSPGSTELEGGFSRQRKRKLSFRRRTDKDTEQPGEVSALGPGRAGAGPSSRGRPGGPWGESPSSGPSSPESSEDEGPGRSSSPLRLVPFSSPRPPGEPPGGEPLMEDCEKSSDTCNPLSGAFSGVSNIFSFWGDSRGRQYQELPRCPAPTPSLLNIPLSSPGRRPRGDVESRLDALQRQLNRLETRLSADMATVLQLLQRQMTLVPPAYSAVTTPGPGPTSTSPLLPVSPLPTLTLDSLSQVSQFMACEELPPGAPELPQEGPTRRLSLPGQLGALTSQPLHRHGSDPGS

[19] = Drug concentration in rat CSF at 10 mg/kg, po after 3 hrs; assay type: ADME, organism-based, Cerebrospinal fluid; conditions: read-out: Ct
[20] = Drug concentration in rat plasma at 10 mg/kg, po after 3 hrs; assay type: ADME, organism-based
[21] = target: T4, Voltage-gated inwardly rectifying potassium channel KCNH2; experiment: Inhibition of human ERG expressed in HEK cells by voltage clamp assay; assay type: toxicity, cell-based
[22] = Free drug concentration in rat plasma; assay type: ADME, cell-free
[23] = Ratio of drug level in brain to plasma in rat; assay type: ADME; conditions: read-out: BPR
[24] = Free drug concentration in cynomolgus monkey plasma; assay type: ADME, cell-free, Macaca fascicularis
[25] = Free drug concentration in human plasma; assay type: ADME, cell-free

Cc1cc(C#N)cnc1C(=O)Nc1ccc(F)c([C@]2(C)CS(=O)(=O)[C@@](C)(C(F)F)C(=N)N2)n1
ED50 [1]: < 3 mg/kg
ED50 [2]: 3 mg/kg
IC50 [3]: 0.003 µM
Ki [4]: > 30.5 µM
Activity [5]: 91%
IC50 [6]: > 30 µM
EC50 [7]: 0.13 µM
IC50 [8]: 7.06 µM
EC50 [9]: 0.02 µM
Ki [10]: 5.88 µM
Ki [11]: 0.001 µM
Ki [12]: > 19.1 µM

COc1cnc(C(=O)Nc2ccc(F)c([C@]3(C)CS(=O)(=O)[C@](C)(CF)C(=N)N3)c2)cn1
IC50 [3]: 0.014 µM
Ki [11]: 0.004 µM

COc1cnc(C(=O)Nc2ccc(F)c([C@]3(C)CS(=O)(=O)[C@@](C)(CF)C(=N)N3)c2)cn1
IC50 [3]: 0.012 µM
Ki [11]: 0.005 µM

Cc1cc(C#N)cnc1C(=O)Nc1ccc(F)c([C@]2(C)CS(=O)(=O)[C@](C)(C(F)F)C(=N)N2)n1
IC50 [3]: 0.011 µM
Activity [5]: 80%
Ki [11]: 0.003 µM

Cc1cc(C#N)cnc1C(=O)Nc1ccc(F)c([C@]2(C)CS(=O)(=O)[C@](C)(CF)C(=N)N2)n1
IC50 [3]: 0.002 µM
Activity [5]: 68%
Ki [11]: 0.002 µM

Cc1cc(C#N)cnc1C(=O)Nc1ccc(F)c([C@]2(C)CS(=O)(=O)[C@@](C)(CF)C(=N)N2)n1
IC50 [3]: 0.001 µM
Activity [5]: 92%
Ki [11]: 0.001 µM

C[C@@]1(C(F)F)C(=N)N[C@](C)(c2nc(NC(=O)c3ccc(C#N)cn3)ccc2F)CS1(=O)=O
Papp [13]: 32.7 ×10⁻⁶ cm/s
logD [14]: 2.5
efflux ratio at 1 µM [15]: 0.8
efflux ratio at 1 µM [16]: 3.7
IC50 [3]: 0.078 µM
pKa [17]: 5.95
IC50 [18]: 24.2 µM
Ki [11]: 0.01 µM

C[C@@]1(c2nc(NC(=O)c3ccc(C#N)cn3)ccc2F)CS(=O)(=O)[C@@](C)(C(F)F)C(=N)N1
Papp [13]: 28.6 ×10⁻⁶ cm/s
logD [14]: 2.3
efflux ratio at 1 µM [15]: 1
concentration at 3 h [19]: 8 nM
efflux ratio at 1 µM [16]: 8.6
IC50 [3]: 0.011 µM
Activity [5]: 80%
concentration at 3 h [20]: 154 nM
pKa [17]: 6.19
IC50 [18]: 2.42 µM
Ki [11]: 0.003 µM

COc1cnc(C(=O)Nc2ccc(F)c([C@]3(C)CS(=O)(=O)[C@](C)(C(F)F)C(=N)N3)c2)cn1
IC50 [3]: 0.171 µM
Ki [11]: 0.012 µM

COc1cnc(C(=O)Nc2ccc(F)c([C@]3(C)CS(=O)(=O)[C@@](C)(C(F)F)C(=N)N3)c2)cn1
IC50 [3]: 0.03 µM
Ki [11]: 0.003 µM

CC1(C)C(=N)N[C@](C)(c2nc(NC(=O)c3ccc(C#N)cn3)ccc2F)CS1(=O)=O
Activity [5]: 88%

COc1cnc(C(=O)Nc2ccc(F)c([C@]3(C)CS(=O)(=O)C(C)(C)C(N)=N3)c2)cn1
ED50 [1]: 0.3 mg/kg
ED50 [2]: 1.2 mg/kg
EC50 [7]: 0.015 µM
EC50 [9]: 0.023 µM

C[C@]1(CF)C(=N)N[C@](C)(c2nc(NC(=O)c3ccc(C#N)cn3)ccc2F)CS1(=O)=O
IC50 [3]: 0.003 µM
Ki [11]: 0.002 µM

CN1C(N)=N[C@](C)(c2cc(NC(=O)c3ccc(F)cn3)ccc2F)CS1(=O)=O [VERUBECESTAT]
Papp [13]: 23 ×10⁻⁶ cm/s
ED50 [1]: < 3 mg/kg
IC50 [21]: 2.2 µM
ED50 [2]: 0.69 mg/kg
fraction unbound [22]: 0.21
Kp [23]: 0.23
fraction unbound [24]: 0.18
EC50 [7]: 0.11 µM
EC50 [9]: 0.041 µM
fraction unbound [25]: 0.24
pKa [17]: 7.5

C[C@@]1(c2nc(NC(=O)c3ccc(C#N)cn3)ccc2F)CS(=O)(=O)[C@](C)(CF)C(=N)N1
IC50 [3]: 0.007 µM
Ki [11]: 0.003 µM

From ChEMBL document CHEMBL5131410, “Design and discovery of C2-fluoroalkyl iminothiazine dioxides as BACE inhibitors” (Bioorg Med Chem Lett, 2022)
